# Measurements as given in patent US20250101041A1, “POSITIVE ALLOSTERIC MODULATORS OF THE MUSCARINIC ACETYLCHOLINE RECEPTOR M4” (Vanderbilt University, priority 2022, published 2025).
# Molecular target: T1, human mAChR M4 (Homo sapiens, UniProt P08173)
# T1 construct: expressed in transfected cells; host or cells: CHO-K1 (American Type Culture Collection), stably expressing hM4 and Gqi5
# T1 sequence (P08173 1-479): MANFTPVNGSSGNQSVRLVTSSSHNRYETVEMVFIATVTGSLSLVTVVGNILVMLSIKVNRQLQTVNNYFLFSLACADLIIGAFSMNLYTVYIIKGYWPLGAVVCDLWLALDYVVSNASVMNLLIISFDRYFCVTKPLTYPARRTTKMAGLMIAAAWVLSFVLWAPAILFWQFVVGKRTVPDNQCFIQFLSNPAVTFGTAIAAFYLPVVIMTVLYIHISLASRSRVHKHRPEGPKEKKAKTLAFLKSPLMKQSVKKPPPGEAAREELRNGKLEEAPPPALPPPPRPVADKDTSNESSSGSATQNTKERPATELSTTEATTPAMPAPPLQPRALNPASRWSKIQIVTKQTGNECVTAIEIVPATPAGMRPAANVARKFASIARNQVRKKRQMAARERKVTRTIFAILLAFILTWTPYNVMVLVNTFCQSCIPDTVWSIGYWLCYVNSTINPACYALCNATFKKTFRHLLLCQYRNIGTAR
# Assay: mAChR M4 cell-based functional assay: calcium mobilization (Fluo-4, FDSS), potentiation of EC20 acetylcholine response in hM4-Gqi5 CHO-K1 cells
# Conditions: human M4; for Emax at 30 µM: CHO-K1, % ACh maximum at 30 μM; for EC50: potentiation of EC20 acetylcholine response, calcium mobilization
# Method in brief: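 CHO-K1 cells stably co-expressing human M4 and chimeric Gqi5, loaded with Fluo-4 AM (50 min, 37 °C). Compounds in 11-point 1:3 series added first; EC20 acetylcholine added at 144 s and again at 230 s. Calcium read on FDSS at 1 Hz; EC50 and Emax from four-parameter logistic fit of potentiated EC20 response.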
Emax at 30 µM,EC50,Compound
60%,2370 nM,"Cc1cc(=O)n2nc(N3CCc4ncc(-c5ccccc5C(F)(F)F)cc4C3)c(C)cc2n1 [Compound 1-255, 2,8-dimethyl-7-(3-(2-(trifluoromethyl)phenyl)-7,8-dihydro-1,6-naphthyridin-6(5H)-yl)-4H-pyrimido[1,2-b] pyridazin-4-one]"
61%,929 nM,"Cc1c(N2CCc3ncc(-c4ccccc4OC(F)(F)F)cc3C2)nn2c(=O)ccnc2c1C [Compound 1-265, 8,9-dimethyl-7-(3-(2-(trifluoromethoxy)phenyl)-7,8-dihydro-1,6-naphthyridin-6(5H)-yl)-4H-pyrimido[1,2-b] pyridazin-4-one]"
81%,621 nM,"Cc1c(N2CCc3ncc(-c4ccccc4C(F)(F)F)cc3C2)nn2c(=O)ccnc2c1C [Compound 1-266, 8,9-dimethyl-7-(3-(2-(trifluoromethyl)phenyl)-7,8-dihydro-1,6-naphthyridin-6(5H)-yl)-4H-pyrimido[1,2-b] pyridazin-4-one]"
84%,448 nM,"Cc1cc(=O)n2nc(N3CCc4ncc(-c5ccc(F)cc5C)cc4C3)c(C)c(C)c2n1 [Compound 1-274, 7-(3-(4-fluoro-2-methylphenyl)-7,8-dihydro-1,6-naphthyridin-6(5H)-yl)-2,8,9-trimethyl-4H-pyrimido[1,2-b]pyridazin-4-one]"
54%,1790 nM,"Cc1cc(=O)n2nc(N3CCc4ncc(-c5ccccc5OC(F)(F)F)cc4C3)c(C)c(C)c2n1 [Compound 1-275, 2,8,9-trimethyl-7-(3-(2-(trifluoromethoxy)phenyl)-7,8-dihydro-1,6-naphthyridin-6(5H)-yl)-4H-pyrimido[1,2-b]pyridazin-4-one]"
57%,1120 nM,"Cc1cc(=O)n2nc(N3CCc4ncc(-c5ccccc5C(F)(F)F)cc4C3)c(C)c(C)c2n1 [Compound 1-277, 2,8,9-trimethyl-7-(3-(2-(trifluoromethyl)phenyl)-7,8-dihydro-1,6-naphthyridin-6(5H)-yl)-4H-pyrimido[1,2-b] pyridazin-4-one]"
81%,,"Cc1cc(=O)n2nc(N3CCc4ncc(-c5ccccc5Cl)cc4C3)c(C)c(C)c2n1 [Compound 1-278, 7-(3-(2-chlorophenyl)-7,8-dihydro-1,6-naphthyridin-6(5H)-yl)-2,8,9-trimethyl-4H-pyrimido[1,2-b]pyridazin-4-one]"
81%,1120 nM,"Cc1cc(=O)n2nc(N3CCc4ncc(-c5ccc(F)cc5F)cc4C3)c(C)c(C)c2n1 [Compound 1-279, 7-(3-(2,4-difluorophenyl)-7,8-dihydro-1,6-naphthyridin-6(5H)-yl)-2,8,9-trimethyl-4H-pyrimido[1,2-b]pyridazin-4-one]"
52%,296 nM,"Cc1cc(=O)n2nc(N3CCc4ncc(-c5ccccc5OC(C)C)cc4C3)c(C)c(C)c2n1 [Compound 1-280, 7-(3-(2-isopropoxyphenyl)-7,8-dihydro-1,6-naphthyridin-6(5H)-yl)-2,8,9-trimethyl-4H-pyrimido[1,2-b]pyridazin-4-one]"

# Further lines, the molecule ahead of its results:
Compound,Emax at 30 µM,EC50
"Cc1cc(=O)n2nc(N3CCc4ncc(-c5ccccc5Cl)cc4C3)c(C)cc2n1 [Compound 1-256, 7-(3-(2-chlorophenyl)-7,8-dihydro-1,6-naphthyridin-6(5H)-yl)-2,8-dimethyl-4H-pyrimido[1,2-b]pyridazin-4-one]",71%,578 nM
"Cc1cc(=O)n2nc(N3CCc4ncc(-c5ccc(F)cc5F)cc4C3)c(C)cc2n1 [Compound 1-257, 7-(3-(2,4-difluorophenyl)-7,8-dihydro-1,6-naphthyridin-6(5H)-yl)-2,8-dimethyl-4H-pyrimido[1,2-b]pyridazin-4-one]",76%,339 nM
"Cc1cc(=O)n2nc(N3CCc4ncc(-c5cc(F)ncc5F)cc4C3)c(C)cc2n1 [Compound 1-258, 7-(3-(2,5-difluoropyridin-4-yl)-7,8-dihydro-1,6-naphthyridin-6(5H)-yl)-2,8-dimethyl-4H-pyrimido[1,2-b]pyridazin-4-one]",67%,363 nM
"COc1cnccc1-c1cnc2c(c1)CN(c1nn3c(=O)cc(C)nc3cc1C)CC2 [Compound 1-259, 7-(3-(3-methoxypyridin-4-yl)-7,8-1,6-naphthyridin-6(5H)-yl)-2,8-dimethyl-4H-pyrimido[1,2-b]pyridazin-4-one]",72%,445 nM
"Cc1cc(=O)n2nc(N3CCc4ncc(-c5cnccn5)cc4C3)c(C)cc2n1 [Compound 1-260, 2,8-dimethyl-7-(3-(pyrazin-2-yl)-7,8-dihydro-1,6-naphthyridin-6(5H)-yl)-4H-pyrimido[1,2-b]pyridazin-4-one]",83%,97 nM
"COCc1cc(=O)n2nc(N3CCc4ncc(-c5cnccn5)cc4C3)c(C)c(C)c2n1 [Compound 1-261, 2-(methoxymethyl)-8,9-dimethyl-7-(3-(pyrazin-2-yl)-7,8-dihydro-1,6-naphthyridin-6(5H)-yl)-4H-pyrimido[1,2-b]pyridazin-4-one]",94%,20 nM
"COCc1cc(=O)n2nc(N3CCc4ncc(-c5cnc(OC)cc5C)cc4C3)c(C)c(C)c2n1 [Compound 1-262, 7-(3-(6-methoxy-4-methylpyridin-3-yl)-7,8-dihydro-1,6-naphthyridin-6(5H)-yl)-2-(methoxymethyl)-8,9-dimethyl-4H-pyrimido[1,2-b]pyridazin-4-one]",99%,1750 nM
"COCc1cc(=O)n2nc(N3CCc4ncc(-c5cnn(C6CC6)c5)cc4C3)c(C)c(C)c2n1 [Compound 1-263, 7-(3-(1-cyclopropyl-1H-pyrazol-4-yl)-7,8-dihydro-1,6-naphthyridin-6(5H)-yl)-2-(methoxymethyl)-8,9-dimethyl-4H-pyrimido[1,2-b]pyridazin-4-one]",86%,96 nM
"Cc1cc(F)ccc1-c1cnc2c(c1)CN(c1nn3c(=O)ccnc3c(C)c1C)CC2 [Compound 1-264, 7-(3-(4-fluoro-2-methylphenyl)-7,8-dihydro-1,6-naphthyridin-6(5H)-yl)-8,9-dimethyl-4H-pyrimido[1,2-b]pyridazin-4-one]",98%,222 nM
"Cc1c(N2CCc3ncc(-c4ccccc4Cl)cc3C2)nn2c(=O)ccnc2c1C [Compound 1-267, 7-(3-(2-chlorophenyl)-7,8-dihydro-1,6-naphthyridin-6(5H)-yl)-8,9-dimethyl-4H-pyrimido[1,2-b]pyridazin-4-one]",89%,183 nM
"Cc1c(N2CCc3ncc(-c4cc(F)ncc4F)cc3C2)nn2c(=O)ccnc2c1C [Compound 1-268, 7-(3-(2,5-difluoropyridin-4-yl)-7,8-dihydro-1,6-naphthyridin-6(5H)-yl)-8,9-dimethyl-4H-pyrimido[1,2-b]pyridazin-4-one]",83%,230 nM
"COc1cnccc1-c1cnc2c(c1)CN(c1nn3c(=O)ccnc3c(C)c1C)CC2 [Compound 1-269, 7-(3-(3-methoxypyridin-4-yl)-7,8-dihydro-1,6-naphthyridin-6(5H)-yl)-8,9-dimethyl-4H-pyrimido[1,2-b]pyridazin-4-one]",88%,211 nM
"COCc1c(N2CCc3ncc(C(F)(F)F)cc3C2)nn2c(=O)ccnc2c1C [Compound 1-270, 8-(methoxymethyl)-9-methyl-7-(3-(trifluoromethyl)-7,8-dihydro-1,6-naphthyridin-6(5H)-yl)-4H-pyrimido[1,2-b]pyridazin-4-one]",95%,33 nM
"COCc1c(N2CCc3ncc(-c4ccc(C)nc4)cc3C2)nn2c(=O)ccnc2c1C [Compound 1-271, 8-(methoxymethyl)-9-methyl-7-(3-(6-methylpyridin-3-yl)-7,8-dihydro-1,6-naphthyridin-6(5H)-yl)-4H-pyrimido[1,2-b] pyridazin-4-one]",87%,70 nM
"Cc1cc(F)c(F)c(-c2cnc3c(c2)CN(c2nn4c(=O)cc(C)nc4c(C)c2C)CC3)c1 [Compound 1-272, 7-(3-(2,3-difluoro-5-methylphenyl)-7,8-dihydro-1,6-naphthyridin-6(5H)-yl)-2,8,9-trimethyl-4H-pyrimido[1,2-b]pyridazin-4-one]",82%,810 nM
"Cc1cc(=O)n2nc(N3CCc4ncc(-c5cc(F)cc(F)c5F)cc4C3)c(C)c(C)c2n1 [Compound 1-273, 2,8,9-trimethyl-7-(3-(2,3,5-trifluorophenyl)-7,8-dihydro-1,6-naphthyridin-6(5H)-yl)-4H-pyrimido[1,2-b]pyridazin-4-one]",75%,1090 nM
"COCc1c(C)c(N2CCc3ncc(C(F)(F)F)cc3C2)nn2c(=O)ccnc12 [Compound 1-276, 9-(methoxymethyl)-8-methyl-7-(3-(trifluoromethyl)-7,8-dihydro-1,6-naphthyridin-6(5H)-yl)-4H-pyrimido[1,2-b]pyridazin-4-one]",66%,
